Laboratory results as given in ChEMBL document CHEMBL4043108, “Identification of galiellalactone-based novel STAT3-selective inhibitors with cytotoxic activities against triple-negative breast cancer cell lines” (Bioorg Med Chem, 2017).
Activity calls are given as the source filed them. The calls are words filed in the database; no cut-off is given here.

What was measured:
MDA-MB-468 [1] = assay: Cytotoxic activity against human MDA-MB-468 cells incubated for 24 hrs by MTT assay; format: functional, cell-based; conditions: MDA-MB-468, 24 h
MDA-MB-231 = assay: Cytotoxic activity against human MDA-MB-231 cells incubated for 24 hrs by MTT assay; format: functional, cell-based; conditions: MDA-MB-231, 24 h
BT-549 = assay: Cytotoxic activity against human BT549 cells incubated for 24 hrs by MTT assay; format: functional, cell-based; conditions: BT-549, 24 h
[2] = target: Signal transducer and activator of transcription 3 (Homo sapiens) (UniProt P40763); assay: Inhibition of STAT3 transcriptional activity in human MDA-MB-468 cells at 5 uM incubated for 24 hrs by STAT3-dependent luciferase reporter assay; format: cell-based
Chain of Signal transducer and activator of transcription 3 (Homo sapiens) (P40763 whole entry): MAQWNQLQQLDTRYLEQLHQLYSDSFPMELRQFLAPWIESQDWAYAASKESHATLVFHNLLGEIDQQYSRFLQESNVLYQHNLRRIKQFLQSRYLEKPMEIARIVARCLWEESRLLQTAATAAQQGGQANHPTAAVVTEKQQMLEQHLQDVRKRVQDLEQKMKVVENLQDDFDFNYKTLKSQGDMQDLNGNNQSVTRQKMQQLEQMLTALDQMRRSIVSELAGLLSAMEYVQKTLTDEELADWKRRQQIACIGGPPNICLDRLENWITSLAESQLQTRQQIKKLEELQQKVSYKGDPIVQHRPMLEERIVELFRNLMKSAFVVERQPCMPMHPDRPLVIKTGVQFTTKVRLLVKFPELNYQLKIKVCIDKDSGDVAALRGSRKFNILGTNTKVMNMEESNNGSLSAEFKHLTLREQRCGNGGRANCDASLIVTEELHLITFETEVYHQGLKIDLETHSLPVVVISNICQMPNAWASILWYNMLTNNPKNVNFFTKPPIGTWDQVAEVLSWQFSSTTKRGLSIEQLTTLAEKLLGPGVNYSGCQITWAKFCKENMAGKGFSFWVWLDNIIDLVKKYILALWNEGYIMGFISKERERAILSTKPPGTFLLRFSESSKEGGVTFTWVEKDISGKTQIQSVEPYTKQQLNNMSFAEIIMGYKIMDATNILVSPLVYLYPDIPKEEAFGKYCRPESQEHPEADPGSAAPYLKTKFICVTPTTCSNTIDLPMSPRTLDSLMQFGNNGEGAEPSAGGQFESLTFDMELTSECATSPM

[3] = target: Signal transducer and activator of transcription 3 (Homo sapiens) (UniProt P40763); assay: Inhibition of STAT3 Tyr705 phosphorylation in human MDA-MB-468 cells at 5 and 10 uM incubated for 4 hrs by Western blot; format: cell-based
[4] = target: Signal transducer and activator of transcription 3 (Homo sapiens) (UniProt P40763); assay: Inhibition of STAT3 Ser727 phosphorylation in human MDA-MB-468 cells at 5 and 10 uM incubated for 4 hrs by Western blot; format: cell-based
[5] = target: T1, Signal transducer and activator of transcription 1-alpha/beta (Homo sapiens) (UniProt P42224); assay: Inhibition of STAT1 Tyr701 phosphorylation in human MDA-MB-468 cells at 5 and 10 uM incubated for 4 hrs by Western blot; format: cell-based
T1 sequence (whole entry): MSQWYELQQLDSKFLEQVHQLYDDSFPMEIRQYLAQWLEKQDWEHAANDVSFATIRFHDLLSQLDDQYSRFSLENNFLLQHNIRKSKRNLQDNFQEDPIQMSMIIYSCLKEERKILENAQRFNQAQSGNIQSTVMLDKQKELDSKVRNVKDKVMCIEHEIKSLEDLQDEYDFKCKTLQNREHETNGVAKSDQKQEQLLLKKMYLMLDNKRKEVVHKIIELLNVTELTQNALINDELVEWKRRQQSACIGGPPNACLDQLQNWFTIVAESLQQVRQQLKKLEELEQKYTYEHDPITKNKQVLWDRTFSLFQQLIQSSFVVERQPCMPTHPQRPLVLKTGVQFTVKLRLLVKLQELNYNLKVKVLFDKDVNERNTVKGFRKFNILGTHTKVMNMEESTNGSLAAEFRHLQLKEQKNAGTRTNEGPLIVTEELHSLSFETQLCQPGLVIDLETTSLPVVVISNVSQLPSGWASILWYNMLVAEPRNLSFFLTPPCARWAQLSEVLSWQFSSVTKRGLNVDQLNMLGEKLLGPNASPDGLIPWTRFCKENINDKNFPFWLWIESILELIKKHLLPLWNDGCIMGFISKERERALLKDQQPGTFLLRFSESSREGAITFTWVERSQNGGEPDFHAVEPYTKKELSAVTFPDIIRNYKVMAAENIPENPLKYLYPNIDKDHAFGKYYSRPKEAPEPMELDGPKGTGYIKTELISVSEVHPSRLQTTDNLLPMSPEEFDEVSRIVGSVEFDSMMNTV

MDA-MB-468 [6] = assay: Effect on total STAT3 protein level in human MDA-MB-468 cells at 5 and 10 uM incubated for 4 hrs by Western blot; format: cell-based; conditions: mda-mb-468, 4 h
MDA-MB-468 [7] = assay: Effect on total STAT1 protein level in human MDA-MB-468 cells at 5 and 10 uM incubated for 4 hrs by Western blot; format: cell-based; conditions: mda-mb-468, 4 h
[8] = Toxicity in human MDA-MB-468 cells assessed as cell viability at 5 uM incubated for 24 hrs by MTT assay (reference value: 100%); format: cell-based; conditions: read-out: Activity
[9] = Toxicity in human MDA-MB-468 cells assessed as cell viability at 10 uM incubated for 24 hrs by MTT assay (reference value: 100%); format: cell-based; conditions: read-out: Activity
[10] = target: T2, Signal transducer and activator of transcription 5A (Homo sapiens) (UniProt P42229); assay: Inhibition of STAT5 Tyr694 phosphorylation in human MDA-MB-468 cells at 5 and 10 uM incubated for 4 hrs by Western blot; format: cell-based
T2 sequence (whole entry): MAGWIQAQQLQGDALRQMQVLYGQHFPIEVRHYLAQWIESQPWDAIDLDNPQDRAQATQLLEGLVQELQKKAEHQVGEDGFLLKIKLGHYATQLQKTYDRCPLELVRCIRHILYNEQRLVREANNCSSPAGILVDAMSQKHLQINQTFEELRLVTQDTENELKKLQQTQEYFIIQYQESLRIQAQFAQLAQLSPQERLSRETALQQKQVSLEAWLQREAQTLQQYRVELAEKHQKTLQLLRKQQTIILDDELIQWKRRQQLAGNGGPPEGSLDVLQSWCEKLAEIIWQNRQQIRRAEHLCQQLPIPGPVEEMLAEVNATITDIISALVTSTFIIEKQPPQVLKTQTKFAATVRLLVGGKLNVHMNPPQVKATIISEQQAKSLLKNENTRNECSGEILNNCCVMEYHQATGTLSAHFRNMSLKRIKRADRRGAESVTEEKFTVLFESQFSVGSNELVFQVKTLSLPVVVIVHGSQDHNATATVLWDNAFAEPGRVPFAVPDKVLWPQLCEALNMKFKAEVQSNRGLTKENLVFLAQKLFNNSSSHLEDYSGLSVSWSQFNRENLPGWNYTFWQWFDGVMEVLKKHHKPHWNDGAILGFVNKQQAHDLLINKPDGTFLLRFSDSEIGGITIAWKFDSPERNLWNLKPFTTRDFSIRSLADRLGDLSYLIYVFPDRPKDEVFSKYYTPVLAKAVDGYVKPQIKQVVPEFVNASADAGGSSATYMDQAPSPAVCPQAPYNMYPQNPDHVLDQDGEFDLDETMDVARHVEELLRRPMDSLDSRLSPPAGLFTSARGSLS

Row | SMILES | IC50 (MDA-MB-468 [1]) | IC50 (MDA-MB-231) | IC50 (BT-549) | inhibition [2] | inhibition [3] | inhibition [4] | inhibition [5] | Activity (MDA-MB-468 [6]) | Activity (MDA-MB-468 [7]) | viability at 24 h, 5 µM [8] | viability at 24 h, 10 µM [9] | inhibition [10]
1 | O=C1O[C@@H]2CC[C@@H]3[C@H](O)CC=C1[C@@]32O | > 50 µM | > 50 µM | > 50 µM | inactive |  |  |  |  |  |  |  | 
2 | C=C1C(=O)O[C@@H]2CC[C@H](CO)[C@H]12 | > 50 µM | > 50 µM | > 50 µM | inactive |  |  |  |  |  |  |  | 
3 | C=CC[C@H](O)[C@H]1CC[C@H]2OC(=O)C(=C)[C@@]12O | 44.1 µM | 43.6 µM | 27.4 µM | inactive |  |  |  |  |  |  |  | 
4 | C=C[C@@H](C)[C@H](O)[C@H]1CC[C@H]2CC(=O)C(=C)[C@]21O | > 50 µM | > 50 µM | > 50 µM | inactive |  |  |  |  |  |  |  | 
5 | C=C1C(=O)O[C@@H]2CC[C@H](CBr)[C@]12OC | 7.91 µM | 8.63 µM | 6.61 µM | Active | Dose-dependent effect | inactive | inactive | Non-Toxic | Non-Toxic | 98% | 93% | 
6 | CN[C@@H]1C[C@H]2O[C@@](C)([C@@H]1OC)n1c3ccccc3c3c4c(c5c6ccccc6n2c5c31)C(=O)NC4 [STAUROSPORINE] | 0.15 µM |  |  |  |  |  |  |  |  |  |  | 
7 | C=CCC(=O)[C@H]1CC[C@H]2OC(=O)C(=C)[C@@]12O | 42.4 µM | 48.3 µM | 25.3 µM | inactive |  |  |  |  |  |  |  | 
8 | C=C1C(=O)O[C@@H]2CC[C@H](CBr)[C@]12OC(C)=O | > 50 µM | > 50 µM | > 50 µM |  |  |  |  |  |  |  |  | 
9 | O=C1O[C@@H]2CC[C@H](CBr)[C@]2(O)[C@]12CO2 | > 50 µM | > 50 µM | > 50 µM | inactive |  |  |  |  |  |  |  | 
10 | C=C1C(=O)O[C@@H]2CC[C@H](COC)[C@]12O | > 50 µM | > 50 µM | 37.9 µM | inactive |  |  |  |  |  |  |  | 
11 | C=C1C(=O)O[C@@H]2CC[C@H](CO)[C@]12OC | > 50 µM | > 50 µM | > 50 µM | inactive |  |  |  |  |  |  |  | 
12 | C=C1C(=O)O[C@@H]2CC[C@H](CF)[C@]12O | 22.6 µM | 23.4 µM | 7.91 µM |  |  |  |  |  |  |  |  | 
13 | C=C[C@H](C)[C@@H](O)[C@H]1CC[C@H]2CC(=O)C(=C)[C@]21O | > 50 µM | > 50 µM | 39.3 µM | inactive |  |  |  |  |  |  |  | 
14 | C[C@@H]1C=C2C(=O)O[C@@H]3CC[C@H](C1)[C@]23O | 17.5 µM | 16.9 µM | 12.7 µM | Active | Dose-dependent effect | inactive | inactive | Non-Toxic |  | 97% | 90% | inactive
15 | C=C1C(=O)O[C@@H]2CC[C@H](CCl)[C@]12O | > 50 µM | > 50 µM | > 50 µM |  |  |  |  |  |  |  |  | 
16 | C[C@H]1C=C2C(=O)O[C@@H]3CC[C@H]([C@@H]1O)[C@]23O | > 50 µM | > 50 µM | > 50 µM | inactive |  |  |  |  |  |  |  | 
17 | O=C1O[C@@H]2CC[C@@H]3[C@@H](O)CC=C1[C@@]32O | > 50 µM | > 50 µM | > 50 µM | inactive |  |  |  |  |  |  |  | 
18 | C=C1C(=O)C[C@@H]2CC[C@H](CO)[C@]12O | > 50 µM | > 50 µM | 41.1 µM | inactive |  |  |  |  |  |  |  | 
19 | C[C@@H]1C(=O)O[C@@H]2CC[C@H](CBr)[C@]12O | > 50 µM | > 50 µM | > 50 µM | inactive |  |  |  |  |  |  |  | 
20 | C=CC[C@@H](O)[C@H]1CC[C@H]2OC(=O)C(=C)[C@@]12O | > 50 µM | > 50 µM | 38.6 µM | inactive |  |  |  |  |  |  |  | 
21 | C[C@@H]1C=C2C(=O)O[C@@H]3CC[C@H]([C@H]1O)[C@]23O | > 50 µM | > 50 µM | > 50 µM | inactive |  |  |  |  |  |  |  | 
22 | C=C1C(=O)O[C@@H]2CC[C@H](CBr)[C@]12O | 11.8 µM | 12.1 µM | 9.63 µM | Active | Dose-dependent effect | inactive | inactive | Non-Toxic | Non-Toxic | 100% | 98% | 
23 | C[C@H]1C=C2C(=O)O[C@@H]3CC[C@H](C1=O)[C@]23O | > 50 µM | > 50 µM | > 50 µM | inactive |  |  |  |  |  |  |  | 
24 | C=C1C(=O)O[C@@H]2CC[C@H](CI)[C@]12O | 23.6 µM | 26 µM | 17.3 µM |  |  |  |  |  |  |  |  | 
25 | C=C1C(=O)O[C@@H]2CC[C@H](CBr)[C@H]12 | 42.6 µM | 33.3 µM | 24.7 µM |  |  |  |  |  |  |  |  | 
26 | C=C1C(=O)O[C@@H]2CC[C@H](CBr)[C@]12OCC | 7.81 µM | 9.11 µM | 5.7 µM | Active |  |  |  |  |  |  |  | 
27 | C=C1C(=O)O[C@@H]2CC[C@H](COC)[C@]12OC | > 50 µM | > 50 µM | > 50 µM | inactive |  |  |  |  |  |  |  | 
